# Assay results: ChEMBL document CHEMBL1201862, “PubChem BioAssay data set” (2004)
# Calls of active or inactive are those of the source. Peptide text beside a SMILES is read from it. * marks the point of attachment. Cbz = O=C(OCc1ccccc1)*
# Experiments:
# Cytochrome P450 2C9 = Cytochrome P450 2C9 (Homo sapiens, UniProt P11712)
# Cytochrome P450 2D6 = Cytochrome P450 2D6 (Homo sapiens, UniProt P10635);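 further: CYP2D6 member of a cytochrome P450 panel assay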
# Cytochrome P450 3A4 = Cytochrome P450 3A4 (Homo sapiens, UniProt P08684);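 further: CYP3A4 tested as one member of a cytochrome P450 panel screen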
# Chain of Cytochrome P450 3A4 (P08684 whole entry): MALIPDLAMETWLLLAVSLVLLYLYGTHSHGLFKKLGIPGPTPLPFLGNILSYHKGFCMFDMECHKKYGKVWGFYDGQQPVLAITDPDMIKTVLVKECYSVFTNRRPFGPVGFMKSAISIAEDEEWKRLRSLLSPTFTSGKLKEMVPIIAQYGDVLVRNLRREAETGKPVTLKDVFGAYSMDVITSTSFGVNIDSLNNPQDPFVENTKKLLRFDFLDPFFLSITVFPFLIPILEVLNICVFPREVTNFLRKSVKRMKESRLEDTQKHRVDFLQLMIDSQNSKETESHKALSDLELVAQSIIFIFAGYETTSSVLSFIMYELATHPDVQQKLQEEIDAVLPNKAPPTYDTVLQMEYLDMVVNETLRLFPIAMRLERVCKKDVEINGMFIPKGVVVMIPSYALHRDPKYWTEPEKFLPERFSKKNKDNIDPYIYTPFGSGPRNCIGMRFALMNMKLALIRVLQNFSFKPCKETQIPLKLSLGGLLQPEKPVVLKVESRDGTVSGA
# Cytochrome P450 1A2 = target: T1, Cytochrome P450 1A2 (Homo sapiens, UniProt P05177);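 further: PubChem cytochrome P450 panel assay, CYP1A2 panel member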
# T1 sequence (P05177 whole entry): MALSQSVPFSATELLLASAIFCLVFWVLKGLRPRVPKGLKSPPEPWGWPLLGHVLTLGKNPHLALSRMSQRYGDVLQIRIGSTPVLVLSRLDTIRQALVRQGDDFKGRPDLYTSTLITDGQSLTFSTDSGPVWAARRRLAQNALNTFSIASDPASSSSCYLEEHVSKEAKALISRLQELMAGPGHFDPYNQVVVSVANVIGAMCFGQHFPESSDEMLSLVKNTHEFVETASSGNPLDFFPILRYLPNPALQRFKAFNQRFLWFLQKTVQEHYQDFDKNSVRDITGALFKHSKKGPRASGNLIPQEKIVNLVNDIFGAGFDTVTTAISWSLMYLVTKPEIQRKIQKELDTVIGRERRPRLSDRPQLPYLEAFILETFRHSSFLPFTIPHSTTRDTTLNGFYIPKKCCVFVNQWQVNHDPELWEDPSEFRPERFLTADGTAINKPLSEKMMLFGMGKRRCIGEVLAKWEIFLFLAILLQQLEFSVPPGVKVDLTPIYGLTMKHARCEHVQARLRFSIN
# [1] = target: T2, Polyadenylate-binding protein 1 (Homo sapiens, UniProt P11940); assay: PABP1 MLLE–PAM2 interaction inhibitors, dose response, miRNA deadenylation inhibitor project, biochemical, fluorescence polarization, Cy5-PAM2 peptide, secondary (AID 602260); format: functional; conditions: read-out: IC50_Mean
# T2 sequence (P11940 whole entry): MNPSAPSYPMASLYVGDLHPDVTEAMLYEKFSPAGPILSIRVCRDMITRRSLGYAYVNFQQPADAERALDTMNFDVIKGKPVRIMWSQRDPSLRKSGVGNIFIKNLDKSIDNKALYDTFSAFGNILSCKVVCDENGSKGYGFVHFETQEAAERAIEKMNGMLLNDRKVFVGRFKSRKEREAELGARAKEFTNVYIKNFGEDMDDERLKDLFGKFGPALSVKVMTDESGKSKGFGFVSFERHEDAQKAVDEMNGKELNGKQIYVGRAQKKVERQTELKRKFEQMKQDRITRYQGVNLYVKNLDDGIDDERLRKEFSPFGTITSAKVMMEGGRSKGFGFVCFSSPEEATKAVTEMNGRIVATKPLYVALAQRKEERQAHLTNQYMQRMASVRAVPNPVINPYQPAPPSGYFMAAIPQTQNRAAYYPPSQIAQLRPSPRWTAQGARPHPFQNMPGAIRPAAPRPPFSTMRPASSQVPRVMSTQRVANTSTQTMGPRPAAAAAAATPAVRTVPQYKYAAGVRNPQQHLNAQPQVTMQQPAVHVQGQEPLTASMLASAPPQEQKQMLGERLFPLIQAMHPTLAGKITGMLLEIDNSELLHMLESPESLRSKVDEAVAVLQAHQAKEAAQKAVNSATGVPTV
# [2] = target: T2, Polyadenylate-binding protein 1; assay: PABP1 MLLE–PAM2 binding inhibitor potency, dose response, biochemical, fluorescence polarization, FITC-PAM2 peptide (AID 602259); format: functional; conditions: read-out: IC50_Mean
# Cytochrome P450 2C19 = Cytochrome P450 2C19 (Homo sapiens, UniProt P33261); assay: Cytochrome panel assay with activity outcomes. Panel member name: p450-cyp2c19 Compounds with AC50 equal or less than 10 uM are considered active; format: functional; conditions: read-out: AC50
# Chain of Cytochrome P450 2C19 (P33261 whole entry): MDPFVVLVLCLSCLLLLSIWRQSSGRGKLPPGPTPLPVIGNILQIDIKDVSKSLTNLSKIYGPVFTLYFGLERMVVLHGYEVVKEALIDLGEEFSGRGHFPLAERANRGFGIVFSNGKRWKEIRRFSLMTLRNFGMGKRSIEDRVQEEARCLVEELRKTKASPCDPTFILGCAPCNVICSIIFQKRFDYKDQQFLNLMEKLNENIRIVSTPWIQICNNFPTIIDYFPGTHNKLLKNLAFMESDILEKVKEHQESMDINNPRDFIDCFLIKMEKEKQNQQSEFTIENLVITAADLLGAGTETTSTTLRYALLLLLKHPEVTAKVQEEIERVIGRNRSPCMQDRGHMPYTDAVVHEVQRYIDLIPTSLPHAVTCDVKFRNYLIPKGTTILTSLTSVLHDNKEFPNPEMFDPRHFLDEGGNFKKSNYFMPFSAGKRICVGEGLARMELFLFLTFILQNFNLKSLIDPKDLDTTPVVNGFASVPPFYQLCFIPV
# Protein RecA = target: T3, Protein RecA (Mycobacterium tuberculosis, UniProt P9WHJ3); assay: Fluorescence Cell-Free Homogeneous Dose Retest to Identify Inhibitors of RecA-Intein Splicing Activity. [Related pubchem assays (depositor defined):AID2097, AID2223, AID489010, AID492950]; format: functional
# T3 sequence (P9WHJ3 whole entry): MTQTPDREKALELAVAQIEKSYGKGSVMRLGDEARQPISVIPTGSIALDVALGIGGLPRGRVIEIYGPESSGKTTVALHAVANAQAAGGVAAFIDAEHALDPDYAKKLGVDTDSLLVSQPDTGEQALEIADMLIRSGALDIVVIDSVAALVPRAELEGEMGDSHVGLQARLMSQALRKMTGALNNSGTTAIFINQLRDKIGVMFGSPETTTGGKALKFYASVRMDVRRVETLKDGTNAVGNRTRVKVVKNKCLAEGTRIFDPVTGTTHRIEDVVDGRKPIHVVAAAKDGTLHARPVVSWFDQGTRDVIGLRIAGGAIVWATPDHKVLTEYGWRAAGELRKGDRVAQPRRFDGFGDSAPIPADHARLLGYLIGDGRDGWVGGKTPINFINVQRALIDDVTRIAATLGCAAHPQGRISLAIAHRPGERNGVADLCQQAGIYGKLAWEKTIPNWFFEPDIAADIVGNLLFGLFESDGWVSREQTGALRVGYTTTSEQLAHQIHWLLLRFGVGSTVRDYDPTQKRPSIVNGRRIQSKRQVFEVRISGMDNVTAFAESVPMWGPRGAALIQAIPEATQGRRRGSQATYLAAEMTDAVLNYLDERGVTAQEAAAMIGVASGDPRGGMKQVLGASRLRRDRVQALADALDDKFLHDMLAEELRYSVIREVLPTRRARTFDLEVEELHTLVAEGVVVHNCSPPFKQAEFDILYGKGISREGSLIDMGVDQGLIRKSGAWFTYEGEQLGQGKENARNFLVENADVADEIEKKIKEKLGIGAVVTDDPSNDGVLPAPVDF
# [3] = target: T4, Replicative DNA helicase DnaB (Mycobacterium tuberculosis, UniProt P9WMR3); assay: DnaB intein splicing inhibitors, dose response, biochemical, cell-free fluorescence (AID 449749); format: functional
# T4 sequence (P9WMR3 whole entry): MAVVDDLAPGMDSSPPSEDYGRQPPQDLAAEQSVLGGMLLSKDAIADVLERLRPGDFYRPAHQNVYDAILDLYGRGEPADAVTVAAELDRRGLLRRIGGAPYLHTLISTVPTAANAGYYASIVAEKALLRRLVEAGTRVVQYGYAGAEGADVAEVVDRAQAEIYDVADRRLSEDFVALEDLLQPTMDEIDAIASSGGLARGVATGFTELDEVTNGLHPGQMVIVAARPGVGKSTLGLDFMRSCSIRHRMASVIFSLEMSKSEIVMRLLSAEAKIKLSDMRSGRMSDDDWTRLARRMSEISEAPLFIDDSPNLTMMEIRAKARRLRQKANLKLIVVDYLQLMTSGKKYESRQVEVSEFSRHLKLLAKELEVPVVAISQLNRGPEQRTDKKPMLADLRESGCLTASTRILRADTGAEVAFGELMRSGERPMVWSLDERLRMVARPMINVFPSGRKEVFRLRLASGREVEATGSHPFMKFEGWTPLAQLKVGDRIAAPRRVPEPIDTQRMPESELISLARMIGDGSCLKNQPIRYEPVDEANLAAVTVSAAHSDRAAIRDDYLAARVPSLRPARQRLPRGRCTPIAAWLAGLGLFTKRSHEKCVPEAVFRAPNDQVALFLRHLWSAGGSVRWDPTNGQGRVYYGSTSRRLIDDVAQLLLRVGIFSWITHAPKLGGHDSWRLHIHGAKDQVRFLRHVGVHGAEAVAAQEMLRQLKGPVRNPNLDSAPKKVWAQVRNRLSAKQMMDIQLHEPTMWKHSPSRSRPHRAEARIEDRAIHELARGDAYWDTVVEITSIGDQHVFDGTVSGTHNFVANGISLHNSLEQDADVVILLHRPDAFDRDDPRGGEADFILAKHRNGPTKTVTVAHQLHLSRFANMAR
# Chain of Cytochrome P450 2C9 (P11712 whole entry): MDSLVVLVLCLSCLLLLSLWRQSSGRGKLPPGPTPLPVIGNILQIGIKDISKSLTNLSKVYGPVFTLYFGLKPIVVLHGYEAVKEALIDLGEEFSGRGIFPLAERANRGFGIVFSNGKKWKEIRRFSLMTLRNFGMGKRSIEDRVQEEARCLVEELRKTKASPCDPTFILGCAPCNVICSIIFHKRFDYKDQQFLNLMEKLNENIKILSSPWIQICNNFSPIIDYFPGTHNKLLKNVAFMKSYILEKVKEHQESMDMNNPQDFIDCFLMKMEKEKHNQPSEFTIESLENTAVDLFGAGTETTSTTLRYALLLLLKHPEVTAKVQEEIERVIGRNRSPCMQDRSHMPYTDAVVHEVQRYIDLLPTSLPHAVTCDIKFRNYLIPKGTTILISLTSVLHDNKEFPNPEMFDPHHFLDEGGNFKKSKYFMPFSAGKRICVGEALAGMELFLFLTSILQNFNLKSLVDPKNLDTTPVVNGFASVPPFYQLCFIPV
# Chain of Cytochrome P450 2D6 (P10635 whole entry): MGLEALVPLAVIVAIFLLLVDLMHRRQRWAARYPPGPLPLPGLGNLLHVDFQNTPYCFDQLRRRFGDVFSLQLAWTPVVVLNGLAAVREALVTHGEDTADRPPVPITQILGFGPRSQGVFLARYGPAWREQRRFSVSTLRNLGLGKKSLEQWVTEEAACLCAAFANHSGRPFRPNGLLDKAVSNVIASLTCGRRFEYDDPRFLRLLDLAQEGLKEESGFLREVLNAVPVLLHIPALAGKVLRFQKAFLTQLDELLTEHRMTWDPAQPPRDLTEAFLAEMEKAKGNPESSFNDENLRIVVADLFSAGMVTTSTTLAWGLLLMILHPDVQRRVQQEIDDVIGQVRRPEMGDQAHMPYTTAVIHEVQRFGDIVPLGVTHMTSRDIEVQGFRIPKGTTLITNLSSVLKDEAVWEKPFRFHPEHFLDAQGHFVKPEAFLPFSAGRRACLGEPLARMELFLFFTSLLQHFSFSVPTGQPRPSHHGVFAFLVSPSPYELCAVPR
smiles,measurement,setting,value
CC[C@]1(c2ncc[nH]2)Cc2ccccc2O1,AC50,Cytochrome P450 2C9,25.1 µM (inconclusive)
same,AC50,Cytochrome P450 2D6,10 µM (inconclusive)
Cc1nn(CC(=O)NCc2ccccc2Cl)c(C)c1[N+](=O)[O-],AC50,Cytochrome P450 2C9,12.6 µM (inconclusive)
same,AC50,Cytochrome P450 2D6,25.1 µM (inconclusive)
same,AC50,Cytochrome P450 3A4,14.1 µM (inconclusive)
same,AC50,Cytochrome P450 1A2,12.6 µM (inconclusive)
O=S(=O)(NC(=S)NC1CCCCC1)c1ccccc1,IC50,[1],> 66 µM (inactive)
same,IC50,[2],> 66 µM (inactive)
C=O.C[C@@H]1Cc2ccccc2N1NC(=O)c1ccc(Cl)c([S+](N)[O-])c1 (some centres not stated),AC50,Cytochrome P450 3A4,5.01 µM (inconclusive)
COc1ccccc1CNc1nc(-c2c(C)noc2C)nc2ccccc12,AC50,Cytochrome P450 2C9,1 µM (inconclusive)
same,AC50,Cytochrome P450 2D6,7.94 µM (inconclusive)
same,AC50,Cytochrome P450 2C19,1.58 µM (inconclusive)
C[C@@H](C(=O)O)/C(=C/c1ccc2c(c1)OCO2)C(=O)O,AC50,Cytochrome P450 3A4,6.31 µM (inconclusive)
same,AC50,Cytochrome P450 1A2,0.316 µM (inconclusive)
O=C1C(Cl)=C(N2CCOCC2)C(=O)N1c1ccccc1F,EC50,Protein RecA,2.47 µM (active)
same,AC50,[3],10.8 µM (active)
COc1ccccc1C1CC(c2cccs2)=Nc2ccccc2S1 (configuration not stated),IC50,[1],> 66 µM (inactive)
same,IC50,[2],> 66 µM (inactive)
Cn1cc(-c2nc3cnc(N4CCOCC4)nc3n(CCC#N)c2=O)c2ccccc21,AC50,Cytochrome P450 3A4,15.8 µM (inconclusive)
O=C(CCc1nc(-c2ccccc2)c(-c2ccccc2)o1)OCc1ccc(Cl)cc1,AC50,Cytochrome P450 3A4,35.5 µM (inconclusive)
O=C(CN1C(=O)/C(=C/c2ccccc2Cl)SC1=S)NC1CCS(=O)(=O)C1 (configuration not stated),IC50,[1],> 66 µM (inactive)
same,IC50,[2],> 66 µM (inactive)
Cc1ccc(OCC(=O)Nc2ccccc2-c2ccccc2)cc1,AC50,Cytochrome P450 2C9,11.2 µM (inconclusive)
Cc1cc(C)n2nc(SCc3cc(=O)oc4ccc5ccccc5c34)nc2n1,IC50,[1],> 66 µM (inactive)
same,IC50,[2],> 66 µM (inactive)
O=C(NC(=S)Nc1cccc2cccnc12)c1ccccc1,IC50,[1],> 66 µM (inactive)
same,IC50,[2],> 66 µM (inactive)
O=C(N/C(=C\c1cccs1)C(=O)N1CCCCCC1)c1ccccc1,AC50,Cytochrome P450 2C9,31.6 µM (inconclusive)
same,AC50,Cytochrome P450 2C19,5.01 µM (inconclusive)
COc1cc(Cc2nccc3cc(OC)c(OC)cc23)c(S(=O)(=O)O)cc1OC,EC50,Protein RecA,85.7 µM (active)
same,AC50,[3],161 µM (active)
Cc1ccccc1-c1nc(C[S+]([O-])CC(=O)NCCN2CCN(Cc3ccccc3)CC2)c(C)o1 (configuration not stated),AC50,Cytochrome P450 2C9,39.8 µM (inconclusive)
CCc1noc(C)c1C(=O)N1CCN(S(=O)(=O)c2ccccc2C(F)(F)F)CC1,IC50,[1],> 66 µM (inactive)
same,IC50,[2],> 66 µM (inactive)
COc1ccc(-c2nc3cnc(Oc4ccccc4)nc3n(C3CC3)c2=O)cc1,AC50,Cytochrome P450 3A4,15.8 µM (inconclusive)
O=c1cnc2cnc(Oc3cccc(Cl)c3)nc2n1Cc1ccc(F)cc1,AC50,Cytochrome P450 3A4,25.1 µM (inconclusive)
CCOC(=O)C(CC)Sc1ncnc2c1nnn2-c1ccc(F)cc1 (configuration not stated),EC50,Protein RecA,26.7 µM (active)
same,AC50,[3],0.908 µM (active)
Cc1ccc(NC(=O)C(CC(C)C)NC(N)=O)cc1 (configuration not stated),EC50,Protein RecA,> 380 µM (inactive)
same,AC50,[3],> 380 µM (inactive)
CCC1NC(=S)N(C2CCCCC2)C1=O (configuration not stated),AC50,Cytochrome P450 2C9,15.8 µM (inconclusive)
same,AC50,Cytochrome P450 2C19,5.01 µM (inconclusive)
O=C(COc1ccc(Br)cc1)NNC(=O)c1ccc(-n2cncn2)c([N+](=O)[O-])c1,IC50,[1],> 66 µM (inactive)
same,IC50,[2],> 66 µM (inactive)
CC1Nc2ncnc(N3CCc4ccccc4C3)c2N(Cc2ccc(Br)cc2)C1=O (configuration not stated),EC50,Protein RecA,23.7 µM (active)
same,AC50,[3],> 380 µM (inactive)
Cc1n[nH]c(C)c1S(=O)(=O)N1CCOCC1,AC50,Cytochrome P450 2C9,17.8 µM (inconclusive)
O=C(O)c1nn(-c2ccccc2)ccc1=O,AC50,Cytochrome P450 2C9,0.398 µM (inconclusive)
Cc1nc2ccccc2c2c1C(=O)NC2=O,EC50,Protein RecA,3.72 µM (active)
same,AC50,[3],76.5 µM (active)
CC(=O)Nc1ccc(SCC(=O)NC(=O)c2ccc(S(=O)(=O)N(C)C)cc2)cc1,IC50,[1],> 66 µM (inactive)
same,IC50,[2],> 66 µM (inactive)
Cc1ccc(S(=O)(=O)CCSc2cccc(C(=O)O)c2)cc1,IC50,[1],> 66 µM (inactive)
same,IC50,[2],> 66 µM (inactive)
CCCCn1[nH]c(-c2ccccc2)cc1=O,EC50,Protein RecA,1.05 µM (active)
same,AC50,[3],2.96 µM (active)
O=C(N/N=C/c1ccc(Cl)cc1)Nc1ccccc1,AC50,Cytochrome P450 2C9,25.1 µM (inconclusive)
same,AC50,Cytochrome P450 3A4,12.6 µM (inconclusive)
C/C(=N/NC(=O)Cc1cc(O)[nH]n1)c1ccc([N+](=O)[O-])cc1,EC50,Protein RecA,1.38 µM (active)
same,AC50,[3],2.51 µM (active)
C/C(=N\NC(=O)c1cccc(Cl)c1)c1cccc(NC(=O)C(C)C)c1,AC50,Cytochrome P450 2D6,28.2 µM (inconclusive)
same,AC50,Cytochrome P450 3A4,15.8 µM (inconclusive)
N[C@@H](Cc1cc(-c2ccc(Cl)cc2Cl)cc(CP(=O)(O)O)c1O)C(=O)O,AC50,Cytochrome P450 2C9,20 µM (inconclusive)
same,AC50,Cytochrome P450 2C19,7.94 µM (inconclusive)
same,AC50,Cytochrome P450 1A2,20 µM (inconclusive)
COc1cccc(-c2cncnc2NCc2ccccc2)c1,AC50,Cytochrome P450 2C9,0.158 µM (inconclusive)
same,AC50,Cytochrome P450 2D6,39.8 µM (inconclusive)
COC(=O)CCC(NC(=O)OCc1ccccc1)C(=O)NC(CC(C)C)C(=O)OC (configuration not stated) (Cbz-Glu(OMe)-Leu-OMe; configuration not given here),AC50,Cytochrome P450 3A4,14.1 µM (inconclusive)
CCCN(CCC)C(=O)Cc1c(-c2ccc(Cl)cc2)nc2c(Cl)cc(Cl)cn12 [ALPDEM],AC50,Cytochrome P450 3A4,0.794 µM (inconclusive)
COc1ccc(-c2nc(C(=O)N3CCN(C)CC3)sc2-c2ccc(OC)cc2)cc1 [FR-122047],AC50,Cytochrome P450 2C9,20 µM (inconclusive)
same,AC50,Cytochrome P450 3A4,7.94 µM (inconclusive)
same,AC50,Cytochrome P450 1A2,31.6 µM (inconclusive)
